US11433028B2, “Compositions for treating viral infections and methods for same” (Tiger Development, LLC, priority 2018, dated 2022)

Assays:
SARS-CoV-2 [1] = type: in vivo, mice
SARS-CoV-2 [2] = tested on: SARS-CoV-2; parameters: species or system mice; conditions: mouse, in vivo

## polylysine
SARS-CoV-2 [1]; mouse, in vivo
  increase in total survival across the treatment period: 5 fold
  mice surviving the treatment and exposure period: six of ten
SARS-CoV-2 [1]; surviving mice, p<0.05, FIG. 3A/3B
  body weight after the treatment and exposure period (recovery): increasing weight to near pre-treatment levels
SARS-CoV-2 [2]
  improved survival rate: 50%
  onset of morbidity: delayed onset of morbidity
